The results in this text go back to patent US7049342B2, “Substituted phenylpropionic acid derivatives” (Kyorin Pharmaceutical Co., Ltd., priority 2000, dated 2006).

In one data set the target is T1, human type PPARα (Homo sapiens, UniProt Q07869).
T1 construct: expressed in transfected cells; host or cells: CHO cells
T1 sequence (Q07869 239-466 limits assumed): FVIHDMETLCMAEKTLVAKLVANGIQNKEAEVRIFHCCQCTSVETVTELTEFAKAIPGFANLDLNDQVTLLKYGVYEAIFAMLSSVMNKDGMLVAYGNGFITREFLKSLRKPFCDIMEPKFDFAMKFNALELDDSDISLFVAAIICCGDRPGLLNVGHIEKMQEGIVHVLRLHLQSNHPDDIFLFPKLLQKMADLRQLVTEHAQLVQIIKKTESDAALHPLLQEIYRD
Description: Test of transcriptional activation on peroxisome proliferator-activated receptor α. To be noted: CHO cells cotransfected with yeast DNA-binding domain/human PPARα ligand-binding domain fusion receptor plasmid, reporter plasmid and Renilla luciferase internal standard; luciferase measured after 24 hours; read-out: Transcription-activating function EC50. Type of data set: cell-based. From the text:
Test of Transcriptional Activation on Peroxisome Proliferator-Activated Receptor α
To CHO cells cultured in a Dulbecco-modified Eagle's medium containing 10% delipid fetal calf serum (FCS/DMEM), receptor plasmid that expresses fused protein of DNA-binding domain being transcription factor of yeast with ligand-binding domain of human type PPARα (Biochemistry, 1993, 32, 5598), its reporter plasmid (STRATAGENE Corp.) and luciferase plasmid of Renilla (Promega Corp.) as internal standard were cotransfected with lipofectamine in the serum-free state. Thereafter, testing compound was added in the 10% SFCS/DMEM and both luciferase activities were measured after 24 hours, which were corrected with internal standard.

pEC50: −log10 of the molar value.

Broadly, the pEC50 is −log10 of the EC50, conventionally taken in molar units. `COc1ccc(CC(OC)C(=O)O)cc1NC(=O)Cc1ccc(Oc2ccccc2)cc1` (stereo not shown) [Example 70]: the pEC50 on human type PPARα is 6.80. As usually defined, the melting point is the temperature of the solid-liquid transition. In turn, `CCC(Cc1ccc(OC)c(CC(=O)Nc2ccc(C(F)(F)F)cc2)c1)C(=O)O` (single isomer, unassigned; (-)) [Example 121 (−), (−)-2-ethyl-3-[4-methoxy-3-[[N-[4-(trifluoromethyl)phenyl]carbamoyl]methyl]-phenyl]propanoic acid] registered a melting point of 121 to 123 °C.

For `CCCCC/C=C\C/C=C\C=C\[C@@H](O)C/C=C\CCCC(=O)O` [(8S) HETE, reference compound], the pEC50 at human type PPARα was 5.89.

On to `CCC(Cc1ccc(OC)c(NC(=O)Cc2ccc(OCc3ccccc3)cc2)c1)C(=O)O` (stereo not shown) [Example 46], for which the pEC50 at human type PPARα was 7.30. On to `COc1ccc(CCC(=O)O)cc1NC(=O)Cc1ccc(-c2ccccc2)cc1` [Example 44], for which the melting point turned out to be 177 °C. Moreover, at human type PPARα, the negative-log EC50 (pEC50) was 6.89. Regarding `CCC(Cc1ccc(OC)c(CC(=O)Nc2ccc(C(F)(F)F)cc2)c1)C(=O)O` (stereo not shown) [Example 88, 2-Ethyl-3-[4-methoxy-3-[[N-[4-(trifluoromethyl)phenyl]carbamoyl]methyl]phenyl]propanoic acid], the melting point lay within 136 to 137 °C. The pEC50 on human type PPARα was 7.82. `CCC(Cc1ccc(OC)c(OCCc2ccc(C(F)(F)F)cc2)c1)C(=O)O` (stereo not shown) [Example 120, 2-Ethyl-3-[4-methoxy-3-[2-[4-(trifluoromethyl)phenyl]ethoxy]phenyl]propanoic acid] registered a melting point of 64 to 66 °C. The same measure, in the same setting: with `COc1ccc(CC(OC)C(=O)O)cc1NC(=O)Cc1ccc(C(F)(F)F)cc1` (stereo not shown) [Example 39, 2-Methoxy-3-[4-methoxy-3-[2-[4-(trifluoromethyl)phenyl]acetylamino]phenyl]propanoic acid] the figure was 124 to 125 °C.
